Test results reported in ChEMBL document CHEMBL5154644, “Design, Synthesis, and Structure-Activity Relationship Optimization of Pyrazolopyrimidine Amide Inhibitors of Phosphoinositide 3-Kinase γ (PI3Kγ)” (J Med Chem, 2022).

Experiments:
[1] = target: T1, Phosphatidylinositol 4,5-bisphosphate 3-kinase catalytic subunit delta isoform (Homo sapiens, UniProt O00329); assay: Inhibition of PI3Kdelta (unknown origin) using PIP2 as substrate preincubated for 1 hr followed by substrate addition and measured after 60 mins in presence of ATP by ADP-glo assay
T1 sequence (O00329 whole entry): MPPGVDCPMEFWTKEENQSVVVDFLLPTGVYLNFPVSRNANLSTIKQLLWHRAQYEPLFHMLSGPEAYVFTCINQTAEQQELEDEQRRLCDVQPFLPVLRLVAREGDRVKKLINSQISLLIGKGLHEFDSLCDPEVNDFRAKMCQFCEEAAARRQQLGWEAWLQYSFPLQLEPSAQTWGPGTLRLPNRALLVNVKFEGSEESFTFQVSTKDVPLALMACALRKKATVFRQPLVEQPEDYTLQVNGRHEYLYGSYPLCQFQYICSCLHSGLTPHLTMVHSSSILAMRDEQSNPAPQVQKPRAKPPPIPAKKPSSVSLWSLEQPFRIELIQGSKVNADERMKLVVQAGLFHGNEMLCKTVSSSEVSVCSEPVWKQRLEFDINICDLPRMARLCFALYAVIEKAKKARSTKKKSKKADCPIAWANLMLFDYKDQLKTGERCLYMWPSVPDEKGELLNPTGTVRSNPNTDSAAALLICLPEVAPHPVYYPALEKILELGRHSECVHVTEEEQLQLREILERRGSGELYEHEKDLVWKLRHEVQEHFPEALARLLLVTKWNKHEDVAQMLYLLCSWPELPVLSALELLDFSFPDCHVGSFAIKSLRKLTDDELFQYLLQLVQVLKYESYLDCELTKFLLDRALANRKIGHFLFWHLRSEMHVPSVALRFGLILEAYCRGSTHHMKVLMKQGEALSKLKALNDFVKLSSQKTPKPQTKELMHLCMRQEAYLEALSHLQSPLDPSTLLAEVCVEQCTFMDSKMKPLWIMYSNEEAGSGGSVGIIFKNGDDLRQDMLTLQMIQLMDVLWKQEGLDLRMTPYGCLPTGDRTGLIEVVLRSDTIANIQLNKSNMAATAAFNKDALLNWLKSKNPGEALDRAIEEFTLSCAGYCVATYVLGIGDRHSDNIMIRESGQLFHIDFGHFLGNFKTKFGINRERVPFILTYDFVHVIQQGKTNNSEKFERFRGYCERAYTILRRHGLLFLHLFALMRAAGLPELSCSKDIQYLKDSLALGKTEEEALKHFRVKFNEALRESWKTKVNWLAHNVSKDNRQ

[2] = species on record: Homo sapiens; assay: Selectivity ratio of IC50 for inhibition of PI3Kbeta (unknown origin) to IC50 for inhibition of PI3Kgamma (unknown origin)
[3] = Metabolic stability in human hepatocytes assessed as intrinsic clearance per 10^6 cells at 0.5 uM by LC-MS/MS analysis; type: ADME, cell-based, Hepatocyte; conditions: read-out: CLH
[4] = target: T2, Phosphatidylinositol 4,5-bisphosphate 3-kinase catalytic subunit gamma isoform (Homo sapiens, UniProt P48736); assay: Inhibition of PI3Kgamma in SDF-1alpha stimulated human whole blood assessed as reduction in phospho-AKT kinase activity preincubated for 1 hr followed by SDF-1alpha stimulation and measured after 2 mins by flow cytometric analysis; type: tissue-based
T2 sequence (P48736 whole entry, canonical isoform): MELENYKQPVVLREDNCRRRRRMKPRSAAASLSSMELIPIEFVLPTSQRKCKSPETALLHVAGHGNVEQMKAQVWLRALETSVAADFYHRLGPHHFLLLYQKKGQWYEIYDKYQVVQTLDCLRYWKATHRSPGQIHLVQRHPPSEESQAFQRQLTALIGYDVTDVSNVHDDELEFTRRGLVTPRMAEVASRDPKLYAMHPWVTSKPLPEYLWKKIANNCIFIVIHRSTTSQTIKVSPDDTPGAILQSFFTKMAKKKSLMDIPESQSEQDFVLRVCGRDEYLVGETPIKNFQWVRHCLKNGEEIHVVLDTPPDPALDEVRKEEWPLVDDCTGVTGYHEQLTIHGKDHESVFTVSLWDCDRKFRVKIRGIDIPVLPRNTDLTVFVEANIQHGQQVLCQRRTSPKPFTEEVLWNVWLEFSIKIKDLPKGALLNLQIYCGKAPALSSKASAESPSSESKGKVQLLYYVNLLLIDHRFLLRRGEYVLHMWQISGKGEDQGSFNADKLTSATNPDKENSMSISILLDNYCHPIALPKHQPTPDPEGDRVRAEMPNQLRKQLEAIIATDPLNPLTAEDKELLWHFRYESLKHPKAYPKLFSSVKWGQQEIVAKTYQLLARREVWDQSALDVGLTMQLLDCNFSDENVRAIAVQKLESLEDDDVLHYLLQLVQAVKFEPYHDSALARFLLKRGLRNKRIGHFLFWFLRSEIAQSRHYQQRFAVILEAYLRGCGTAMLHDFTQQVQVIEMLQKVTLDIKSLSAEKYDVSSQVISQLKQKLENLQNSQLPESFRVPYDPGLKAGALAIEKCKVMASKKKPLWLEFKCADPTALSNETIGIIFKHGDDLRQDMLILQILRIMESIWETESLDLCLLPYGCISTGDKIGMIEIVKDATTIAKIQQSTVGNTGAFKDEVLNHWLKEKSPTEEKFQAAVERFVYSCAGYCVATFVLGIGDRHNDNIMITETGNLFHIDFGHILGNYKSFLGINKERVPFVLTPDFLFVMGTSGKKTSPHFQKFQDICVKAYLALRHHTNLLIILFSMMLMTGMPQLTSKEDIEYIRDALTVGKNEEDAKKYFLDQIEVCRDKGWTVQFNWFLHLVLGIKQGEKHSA

[5] = Metabolic stability in rat hepatocyte assessed as intrinsic clearance per 10^8 cells at 0.5 uM by LC-MS/MS analysis; type: ADME, cell-based; conditions: hepatocytes
[6] = target: Phosphatidylinositol 4,5-bisphosphate 3-kinase catalytic subunit alpha isoform (Homo sapiens, UniProt P42336); assay: Inhibition of PI3Kalpha (unknown origin) using PIP2 as substrate preincubated for 1 hr followed by substrate addition and measured after 60 mins in presence of ATP by ADP-glo assay
Chain of Phosphatidylinositol 4,5-bisphosphate 3-kinase catalytic subunit alpha isoform (P42336 whole entry, canonical isoform): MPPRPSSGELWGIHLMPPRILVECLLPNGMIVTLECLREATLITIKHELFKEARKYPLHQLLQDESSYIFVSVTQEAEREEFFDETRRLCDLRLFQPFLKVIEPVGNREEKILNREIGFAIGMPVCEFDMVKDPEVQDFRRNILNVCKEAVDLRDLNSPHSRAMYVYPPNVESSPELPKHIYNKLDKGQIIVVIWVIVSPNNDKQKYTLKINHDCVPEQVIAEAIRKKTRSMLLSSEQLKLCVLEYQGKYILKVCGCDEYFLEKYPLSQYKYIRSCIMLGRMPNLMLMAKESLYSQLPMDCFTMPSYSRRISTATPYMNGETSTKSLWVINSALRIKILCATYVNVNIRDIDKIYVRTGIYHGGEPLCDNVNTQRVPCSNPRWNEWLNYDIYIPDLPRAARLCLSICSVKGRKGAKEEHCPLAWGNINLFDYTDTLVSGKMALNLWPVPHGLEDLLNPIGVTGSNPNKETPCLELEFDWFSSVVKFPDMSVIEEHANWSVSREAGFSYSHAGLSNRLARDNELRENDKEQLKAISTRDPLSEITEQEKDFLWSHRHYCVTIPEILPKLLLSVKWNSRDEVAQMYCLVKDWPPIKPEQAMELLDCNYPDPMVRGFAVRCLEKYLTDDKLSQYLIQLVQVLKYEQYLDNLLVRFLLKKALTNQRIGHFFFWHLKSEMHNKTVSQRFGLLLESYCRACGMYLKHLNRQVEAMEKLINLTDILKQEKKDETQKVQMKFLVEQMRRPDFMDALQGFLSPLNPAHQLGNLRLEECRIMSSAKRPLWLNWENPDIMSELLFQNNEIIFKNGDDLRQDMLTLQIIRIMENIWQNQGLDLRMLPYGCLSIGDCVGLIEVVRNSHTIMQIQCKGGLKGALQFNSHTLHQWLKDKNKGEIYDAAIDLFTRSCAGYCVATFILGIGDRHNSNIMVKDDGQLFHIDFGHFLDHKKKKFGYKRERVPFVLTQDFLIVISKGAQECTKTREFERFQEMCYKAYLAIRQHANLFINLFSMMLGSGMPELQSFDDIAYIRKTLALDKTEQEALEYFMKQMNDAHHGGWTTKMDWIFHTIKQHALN

[7] = target: T2, Phosphatidylinositol 4,5-bisphosphate 3-kinase catalytic subunit gamma isoform; assay: Inhibition of PI3Kgamma (unknown origin) in […] stimulated human THP-1 cells assessed as reduction in Akt phosphorylation level at Ser473 residue preincubated for 60 mins followed by rhMCP-1 stimulation and measured after 2 mins by AlphaLisa assay; type: cell-based
[8] = Hepatic clearance in Sprague-Dawley rat by LC-MS/MS analysis; type: ADME; conditions: in vivo
[9] = target: CYP3A4 (Homo sapiens, UniProt P08684); assay: in vitro; conditions: human liver microsomes, probe midazolam
Chain of CYP3A4 (P08684 whole entry): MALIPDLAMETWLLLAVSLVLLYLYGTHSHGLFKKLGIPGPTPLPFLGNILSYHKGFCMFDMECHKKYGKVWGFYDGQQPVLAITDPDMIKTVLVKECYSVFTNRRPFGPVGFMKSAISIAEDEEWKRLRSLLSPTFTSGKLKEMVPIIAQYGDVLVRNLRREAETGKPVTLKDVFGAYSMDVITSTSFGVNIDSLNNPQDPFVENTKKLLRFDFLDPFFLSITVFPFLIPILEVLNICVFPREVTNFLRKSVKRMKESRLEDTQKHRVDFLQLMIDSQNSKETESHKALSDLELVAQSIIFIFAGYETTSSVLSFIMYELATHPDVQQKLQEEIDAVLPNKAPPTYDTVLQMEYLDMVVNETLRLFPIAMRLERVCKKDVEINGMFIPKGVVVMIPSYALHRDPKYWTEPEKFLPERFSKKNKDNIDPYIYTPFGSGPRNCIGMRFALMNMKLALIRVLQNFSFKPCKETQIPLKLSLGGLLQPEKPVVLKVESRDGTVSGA
Description: Time dependent inhibition of CYP3A4 in human liver microsomes at 10 uM using midazolam as substrate preincubated for 30 mins in presence of NADPH by LC/MS/MS analysis relative to control

[10] = species on record: Homo sapiens; assay: Selectivity ratio of IC50 for inhibition of PI3Kalpha (unknown origin) to IC50 for inhibition of PI3Kgamma (unknown origin)
[11] = target: Phosphatidylinositol 4,5-bisphosphate 3-kinase catalytic subunit beta isoform (Homo sapiens, UniProt P42338); assay: Inhibition of PI3Kbeta (unknown origin) using PIP2 as substrate preincubated for 1 hr followed by substrate addition and measured after 60 mins in presence of ATP by ADP-glo assay
Chain of Phosphatidylinositol 4,5-bisphosphate 3-kinase catalytic subunit beta isoform (P42338 whole entry, canonical isoform): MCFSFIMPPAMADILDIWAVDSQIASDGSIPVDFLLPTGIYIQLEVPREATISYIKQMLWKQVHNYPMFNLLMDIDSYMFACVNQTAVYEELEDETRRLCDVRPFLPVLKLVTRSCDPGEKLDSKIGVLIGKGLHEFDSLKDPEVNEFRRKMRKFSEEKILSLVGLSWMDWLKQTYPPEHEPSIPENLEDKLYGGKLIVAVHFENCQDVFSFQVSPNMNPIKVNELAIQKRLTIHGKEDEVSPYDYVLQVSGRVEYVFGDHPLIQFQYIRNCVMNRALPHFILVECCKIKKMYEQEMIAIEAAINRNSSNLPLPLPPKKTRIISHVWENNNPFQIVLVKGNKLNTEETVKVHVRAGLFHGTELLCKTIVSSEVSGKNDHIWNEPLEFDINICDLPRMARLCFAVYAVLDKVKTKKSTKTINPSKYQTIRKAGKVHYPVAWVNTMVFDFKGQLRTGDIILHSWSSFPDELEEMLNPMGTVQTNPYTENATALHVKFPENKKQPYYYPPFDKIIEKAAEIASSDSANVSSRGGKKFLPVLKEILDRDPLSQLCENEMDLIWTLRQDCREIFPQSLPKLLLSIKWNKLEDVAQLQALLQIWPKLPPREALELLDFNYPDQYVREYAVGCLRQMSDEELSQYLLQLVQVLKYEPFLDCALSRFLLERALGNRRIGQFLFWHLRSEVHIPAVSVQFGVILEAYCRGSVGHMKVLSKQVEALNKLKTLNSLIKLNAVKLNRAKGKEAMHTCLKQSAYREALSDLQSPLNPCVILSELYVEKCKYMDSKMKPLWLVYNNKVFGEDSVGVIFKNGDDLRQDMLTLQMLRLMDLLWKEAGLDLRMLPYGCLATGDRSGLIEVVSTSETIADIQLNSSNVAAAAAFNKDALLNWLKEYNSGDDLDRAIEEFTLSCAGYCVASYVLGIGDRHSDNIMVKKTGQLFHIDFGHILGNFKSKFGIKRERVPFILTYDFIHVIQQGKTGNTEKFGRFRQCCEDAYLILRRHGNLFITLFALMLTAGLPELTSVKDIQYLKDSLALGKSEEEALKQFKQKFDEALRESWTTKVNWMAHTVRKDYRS

[12] = target: T2, Phosphatidylinositol 4,5-bisphosphate 3-kinase catalytic subunit gamma isoform; assay: Inhibition of PI3Kgamma (unknown origin) using PIP2 as substrate preincubated for 1 hr followed by substrate addition and measured after 60 mins in presence of ATP by ADP-glo assay
[13] = target: T3, hERG (Homo sapiens, UniProt Q12809); assay: Inhibition of human ERG at 10 uM by patch clamp assay relative to control; type: toxicity
T3 sequence (Q12809 whole entry): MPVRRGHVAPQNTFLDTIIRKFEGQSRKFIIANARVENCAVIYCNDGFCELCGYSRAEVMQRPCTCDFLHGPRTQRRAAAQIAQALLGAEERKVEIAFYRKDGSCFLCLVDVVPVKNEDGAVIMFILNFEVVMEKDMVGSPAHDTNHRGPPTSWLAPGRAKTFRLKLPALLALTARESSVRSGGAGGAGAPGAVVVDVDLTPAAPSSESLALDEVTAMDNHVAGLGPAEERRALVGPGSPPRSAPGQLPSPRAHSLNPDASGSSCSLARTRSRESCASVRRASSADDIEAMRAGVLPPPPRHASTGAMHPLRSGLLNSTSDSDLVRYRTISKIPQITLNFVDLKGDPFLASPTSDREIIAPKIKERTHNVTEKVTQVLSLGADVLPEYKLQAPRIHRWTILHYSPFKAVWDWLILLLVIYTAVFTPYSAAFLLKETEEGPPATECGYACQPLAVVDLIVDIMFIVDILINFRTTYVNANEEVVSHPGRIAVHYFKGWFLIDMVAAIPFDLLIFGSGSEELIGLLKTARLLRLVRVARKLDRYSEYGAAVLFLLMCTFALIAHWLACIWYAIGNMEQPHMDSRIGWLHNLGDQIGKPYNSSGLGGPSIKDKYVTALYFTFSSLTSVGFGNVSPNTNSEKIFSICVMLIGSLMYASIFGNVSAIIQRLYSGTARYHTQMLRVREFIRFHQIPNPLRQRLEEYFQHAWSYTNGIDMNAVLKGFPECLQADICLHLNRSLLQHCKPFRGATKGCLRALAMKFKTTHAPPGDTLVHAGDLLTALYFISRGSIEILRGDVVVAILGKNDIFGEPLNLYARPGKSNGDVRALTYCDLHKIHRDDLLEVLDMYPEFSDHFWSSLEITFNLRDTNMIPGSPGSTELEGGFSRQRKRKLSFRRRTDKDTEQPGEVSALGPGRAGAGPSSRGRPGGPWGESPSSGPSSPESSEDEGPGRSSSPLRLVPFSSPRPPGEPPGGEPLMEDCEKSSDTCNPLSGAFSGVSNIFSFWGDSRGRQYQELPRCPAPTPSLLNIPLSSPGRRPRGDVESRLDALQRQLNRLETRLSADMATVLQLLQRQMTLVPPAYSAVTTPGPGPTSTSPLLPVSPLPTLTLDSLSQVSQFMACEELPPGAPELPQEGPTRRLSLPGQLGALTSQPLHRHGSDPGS

[14] = target: T3, hERG; assay: Inhibition of human ERG at 3 uM by patch clamp assay relative to control; type: toxicity
[15] = species on record: Homo sapiens; assay: Selectivity ratio of IC50 for inhibition of PI3Kdelta (unknown origin) to IC50 for inhibition of PI3Kgamma (unknown origin)

| IC50 [1] [nM] | Ratio IC50 [2] | hepatocyte CLint at 0.5 µM [3] [µL/min/1e6 cells] | IC50 [4] [nM] | hepatocyte intrinsic clearance [5] [µL/min] | IC50 [6] [nM] | IC50 [7] [nM] | CLH [8] [mL/min/kg] | inhibition at 30 min, 10 µM [9] [%] | Ratio IC50 [10] | IC50 [11] [nM] | IC50 [12] [nM] | Ratio IC50 [15] | SMILES | inhibition at 10 µM [13] [%] | inhibition at 3 µM [14] [%] |
| --- | --- | --- | --- | --- | --- | --- | --- | --- | --- | --- | --- | --- | --- | --- | --- |
| 3980 |  | 13.3 | 1300 | 1.69 | > 10000 | 80 |  |  | > 3970 |  | 2.5 | 1580 | C[C@H](N1Cc2cc(-c3ccn4nc(N)c(C(=O)N[C@@H](CO)C5CC5)c4n3)cc(C3CC3)c2C1=O)C(F)(F)F |  |  |
| 419 |  | 7.17 | 600 | 8.28 | 1320 | 68 |  |  | 385 |  | 3.4 | 122 | C[C@H](N1Cc2cc(-c3ccn4nc(N)c(C(=O)N[C@@H](CO)C5CC5)c4n3)cc(OC(F)F)c2C1=O)C(F)(F)F |  |  |
| 3110 | 9400 | 4.35 | 510 | 8.42 | 1910 | 48 | 15 | 18 | 611 | 29400 | 3.1 |  | C[C@@H](C1CC1)N1Cc2cc(-c3ccn4nc(N)c(C(=O)N[C@@H](CO)C5CC5)c4n3)cc(OC(F)F)c2C1=O | 21 |  |
| 4640 |  | 3.18 | 600 | 2.98 | > 10000 | 83 |  |  | > 3140 |  | 3.1 | 1460 | C[C@H](N1Cc2cc(-c3ccn4nc(N)c(C(=O)N[C@@H](CO)C5CC5)c4n3)cc(Cl)c2C1=O)C(F)(F)F |  |  |

Continued, compound first:

| SMILES | IC50 [1] [nM] | Ratio IC50 [2] | hepatocyte CLint at 0.5 µM [3] [µL/min/1e6 cells] | IC50 [4] [nM] | hepatocyte intrinsic clearance [5] [µL/min] | IC50 [6] [nM] | IC50 [7] [nM] | CLH [8] [mL/min/kg] | inhibition at 30 min, 10 µM [9] [%] | Ratio IC50 [10] | IC50 [11] [nM] | IC50 [12] [nM] | Ratio IC50 [15] | inhibition at 10 µM [13] [%] | inhibition at 3 µM [14] [%] |
| --- | --- | --- | --- | --- | --- | --- | --- | --- | --- | --- | --- | --- | --- | --- | --- |
| C[C@@H](C1CC1)N1Cc2cc(-c3ccn4nc(N)c(C(=O)N[C@H]5CC[C@](C)(O)CC5)c4n3)cc(NS(C)(=O)=O)c2C1=O | 268 | 8410 | 3.39 | 420 | 8.24 | 326 | 22 | 30 | 12 | 362 | 7570 | 0.9 |  |  |  |
| C[C@@H](C1CC1)N1Cc2cc(-c3ccn4nc(N)c(C(=O)N[C@@H](CO)C5CC5)c4n3)cc(NS(C)(=O)=O)c2C1=O | 991 |  | 4.09 | 260 | < 1.2 | 1200 | 33 |  | 35 | 1470 |  | 0.8 |  |  |  |
| C[C@@H](C1CC1)N1Cc2cc(-c3ccn4nc(N)c(C(=O)N[C@H]5CC[C@](O)(C(F)(F)F)CC5)c4n3)cc(NS(C)(=O)=O)c2C1=O | 1060 | 4560 | 1.9 | 210 | 11 | 4030 | 52 | 23.3 | 17 | 1880 | 9780 | 2.1 |  | 68 | 45 |
| C[C@@H](C1CC1)N1Cc2cc(-c3ccn4nc(N)c(C(=O)N[C@@H](CO)C5CC5)c4n3)cc(OC(F)(F)F)c2C1=O | 1790 | 3040 | 4.05 | 750 | < 1.2 | 2060 | 72 | 21.7 | 6 | 733 | 8550 | 2.8 |  |  |  |
| C[C@H](N1Cc2cc(-c3ccn4nc(N)c(C(=O)N[C@@H](CO)C5CC5)c4n3)cc(NS(C)(=O)=O)c2C1=O)C(F)(F)F | 825 |  | 6.31 | 1300 | 2.48 | 1640 | 72 |  |  | 474 |  | 3.5 | 238 |  |  |
